The text below walks through data of patent US12351580B2, “NLRP3 modulators” (Innate Tumor Immunity, Inc., priority 2017, dated 2025).

In general, EC50 refers to the concentration giving half of the maximal effect. Read a high EC50 as weaker potency.

T1 sequence (Q96P20 whole entry): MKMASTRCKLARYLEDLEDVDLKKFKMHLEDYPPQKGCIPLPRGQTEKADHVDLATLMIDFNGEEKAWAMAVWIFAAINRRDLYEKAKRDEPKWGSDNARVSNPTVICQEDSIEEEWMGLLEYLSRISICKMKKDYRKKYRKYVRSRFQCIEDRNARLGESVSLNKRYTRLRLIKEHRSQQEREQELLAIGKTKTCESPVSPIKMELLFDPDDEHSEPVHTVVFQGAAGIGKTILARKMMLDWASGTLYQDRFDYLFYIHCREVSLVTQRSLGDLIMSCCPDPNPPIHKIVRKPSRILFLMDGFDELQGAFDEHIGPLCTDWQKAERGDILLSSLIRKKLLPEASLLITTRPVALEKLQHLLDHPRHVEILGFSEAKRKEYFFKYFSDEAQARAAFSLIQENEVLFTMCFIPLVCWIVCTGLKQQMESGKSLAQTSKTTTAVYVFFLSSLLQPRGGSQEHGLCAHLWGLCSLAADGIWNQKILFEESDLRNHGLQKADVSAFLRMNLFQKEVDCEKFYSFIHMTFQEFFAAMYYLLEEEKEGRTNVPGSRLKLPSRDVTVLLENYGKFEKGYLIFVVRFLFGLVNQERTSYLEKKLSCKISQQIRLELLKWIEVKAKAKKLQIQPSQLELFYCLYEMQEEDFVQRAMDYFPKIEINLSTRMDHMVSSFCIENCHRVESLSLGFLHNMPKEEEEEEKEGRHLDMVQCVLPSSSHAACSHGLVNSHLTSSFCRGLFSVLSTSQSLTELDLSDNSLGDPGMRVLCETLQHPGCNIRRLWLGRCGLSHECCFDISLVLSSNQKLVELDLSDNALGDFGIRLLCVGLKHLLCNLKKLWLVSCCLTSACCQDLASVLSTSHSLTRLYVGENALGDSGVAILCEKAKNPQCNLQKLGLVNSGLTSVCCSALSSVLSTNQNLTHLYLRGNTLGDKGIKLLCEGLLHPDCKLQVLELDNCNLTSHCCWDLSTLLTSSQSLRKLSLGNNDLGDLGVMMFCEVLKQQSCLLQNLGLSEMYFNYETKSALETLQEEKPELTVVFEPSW

The assay addresses T1, hNLRP3 (Homo sapiens, UniProt Q96P20).
T1 construct: THP-1 cells were purchased from the American Type Culture Collection; host or cells: THP-1 cells, PMA-differentiated
As to the kind of experiment: Measurement of IL-1β production in PMA-differentiated THP-1 cells (hNLRP3 agonist; ELISA, alternative and hTRF procedures). It is filed as cell-based. As to the method:
Measurement of IL-1β production in PMA-differentiated THP-1 cells THP-1 cells were purchased from the American Type Culture Collection and sub-cultured according to instructions from the supplier. Prior to experiments, cells were cultured in RPMI 1640 containing 10% heat inactivated FBS, penicillin (100 units/ml) and streptomycin (100 μg/ml), and maintained in log phase prior to experimental setup. Prior to the experiment THP-1 were treated with PMA (Phorbol 12-myristate 13-acetate) ([…]) for 24 hours. The day of the experiment the media was removed and attaching cells were treated with trypsin for 2 minutes, cells were then collected, washed with PBS (phosphate buffer saline), spin down, resuspended in 2% heat inactivated FBS with RPMI at a concentration of 1×10^6 cells/ml, and 100 μl was plated in a 96 well plate. Compounds were dissolved in dimethyl sulfoxide (DMSO) and added to the culture medium to achieve desired concentration (e.g. 100, 30, 10, 3, 1, 0.3 or 0.1 μM). Cells were incubated with compounds for 4 hours. Cell free supernatant was collected and the production of […] was evaluated by ELISA. A vehicle only control was run concurrently with each experiment. Final DMSO concentration was 1%.
Measurement of IL-1β Production in PMA-Differentiated THP-1 Cells (Alternative Procedure)
THP-1 cells were purchased from the American Type Culture Collection and sub-cultured according to instructions from the supplier. Prior to experiments, cells were cultured in RPMI 1640 containing 10% heat inactivated FBS, penicillin (100 units/ml), streptomycin (100 μg/ml), HEPES (10 mM) and sodium pyruvate (1 mM) and maintained in log phase prior to experimental setup. Prior to the experiment, THP-1 cells were treated with PMA (Phorbol 12-myristate 13-acetate) (20 μg/ml) overnight. The day of the experiment, the media was removed and attached cells were treated with trypsin for 2 minutes, cells were then collected, washed with PBS (phosphate buffer saline), pelleted by centrifugation and resuspended in 2% heat inactivated FBS with RPMI at a concentration of 50,000 cells/well in a 384 well plate. Cell free supernatant was collected and the production of IL-1β was evaluated by ELISA. Compounds were dissolved in dimethyl sulfoxide (DMSO) and added to the culture medium to achieve desired concentration (e.g. 100, 30, 10, 3, 1, 0.3 or 0.1 μM). Cells were incubated with compounds for 2 hours. A vehicle only control was run concurrently with each experiment. Final DMSO concentration was 1%.
Measurement of IL-1β Production—hTRF Protocol (Second Alternative Procedure)
Serial dilutions of compounds in DMSO were added to low volume 384 well plates at 100 nl/well using an ECHO 550 acoustic dispenser (Labcyte) to achieve final starting concentration of 10 μM in assay.
THP-1 cells in RPMI (Gibco, 11875) media with 10% FBS at a density of 1×10^6 cell/ml in a T175 flask were treated with a final concentration of phorbol 12-myristate 13-acetate (PMA) (Sigma, P1585) of 50 ng/ml overnight at 37° C. at 5% CO2 for differentiation. Cells were harvested the next day after rinsing well with dPBS using 0.5% trypsin. A cell solution was prepared of 1×10^6 cells/ml for 50,000 cells in 50 μl/well in RPMI media with 2% FBS. Cells were plated using a multichannel pipette onto the compound dilutions in Greiner, 384 well, black clear bottom tissue culture treated plates (781090). The plates were incubated in 37° C. incubator at 5% CO2 for 2 hours.
After the 2 hour incubation, the cell plates were spun in the centrifuge for 5 minutes at 1200 rpm. Using the Felix (CyBio), 8 μl of the supernatant was transferred to 384 well, low volume, white proxy plates. (Perkin Elmer, 6008230). A human IL1beta hTRF kit was used to analyze the supernatant (CISBIO, 62HIL1BPEG). The kit instructions were followed for preparing the IL1Beta standard curve and then the antibodies from the kit were diluted 1:40 rather than 1:20 as kit instructed.
Regarding `CCN(Cc1nc2c(N)nc3ccccc3c2n1CCC(=O)N1CCN(C(=O)OC(C)(C)C)CC1)C(C)=O` [Compound 212], the EC50 stood at 85 µM.

The compound `CCN(Cc1nc2c(N)nc3cc(Br)ccc3c2n1CCCC(=O)N(C)C)C(C)=O` [Compound 213] yielded a concentration for a half-maximal effect (EC50) of 17.6 µM.

In turn, `CCN(Cc1nc2c(N)nc3cc(Br)ccc3c2n1CCCC(=O)N1CCOCC1)C(C)=O` [Compound 214] gave an EC50 of 51.5 µM.

`CN(C)C(=O)CCCn1c(CN2CCCC2=O)nc2c(N)nc3cc(Br)ccc3c21` [Compound 215] had an EC50 of 18.2 µM.

`COC(=O)CCCn1c(CN2CCCC2=O)nc2c(N)nc3cc(Cl)ccc3c21` [Compound 216] displayed an EC50 of 6.6 µM.

`CCN(Cc1nc2c(N)nc3cc(Cl)ccc3c2n1CCCC(=O)NC)C(C)=O` [Compound 217] displayed a 50% effective concentration (EC50) of 96 µM.

In the case of `CCN(Cc1nc2c(N)nc3cc(Br)ccc3c2n1CCCC(=O)OC)C(C)=O` [Compound 218], the EC50 came to 1.2 µM.

For `CCN(Cc1nc2c(N)nc3cc(Cl)ccc3c2n1CCCC(=O)OC)C(C)=O` [Compound 219], the midpoint of the response, the EC50, lay at 2 µM.

As for `CCN(Cc1nc2c(N)nc3cc(Cl)ccc3c2n1CCCC(=O)N1CCOCC1)C(C)=O` [Compound 220], a half-maximal response (EC50) required 51 µM.

Compound `CCN(Cc1nc2c(N)nc3cc(Cl)ccc3c2n1CCCC(=O)N1CCN(C)CC1)C(C)=O` [Compound 221] came in with an EC50 of 85 µM.

As for `CCN(Cc1nc2c(N)nc3cc(Cl)ccc3c2n1CCCC(=O)N1CCCC1)C(C)=O` [Compound 222], the response was half-maximal at 42 µM (EC50).

For the compound `CCN(Cc1nc2c(N)nc3ccccc3c2n1CCC(=O)N1CCS(=O)(=O)CC1)C(=O)OC(C)(C)C` [Compound 223], a half-maximal effect (EC50) was put at 77 µM.

On to `CCNCc1nc2c(N)nc3cc(Br)ccc3c2[nH]1` [Compound 225], for which the EC50 was 10.9 µM.

`CCN(Cc1nc2c(N)nc3cc(C(F)(F)F)ccc3c2n1CCCC(=O)NC)C(=O)OC(C)(C)C` [Compound 226] gave an EC50 of 85 µM.

Regarding `CCNCc1nc2c(N)nc3cc(C(F)(F)F)ccc3c2n1CCCC(=O)OC` [Compound 227], the EC50 was determined as 22.7 µM.

Regarding `CCN(Cc1nc2c(N)nc3cc(C(F)(F)F)ccc3c2n1CCCC(=O)N1CCOCC1)C(=O)OC(C)(C)C` [Compound 228], the EC50 is 93 µM.

The compound `CCN(Cc1nc2c(N)nc3cc(C(F)(F)F)ccc3c2n1CCCC(=O)OC)C(C)=O` [Compound 229] yielded an EC50 of 12.3 µM.

In turn, `COc1ccc(-c2ccc3c(c2)nc(N)c2nc(CN4CCCC4=O)[nH]c23)cc1` [Compound 230] came in with an EC50 of 4.5 µM.

In turn, `CC(=O)NCc1nc2c(N)nc3ccccc3c2[nH]1` [Compound 233] returned an EC50 of 120 µM.

As to `Nc1nc2ccccc2c2[nH]c(CN3CCCC3=O)nc12` [Compound 278], it took 10.8 µM to reach a half-maximal effect (EC50).

For `Nc1nc2cc(-c3cccnc3)ccc2c2[nH]c(CN3CCCC3=O)nc12` [Compound 279, 1-[(4-amino-7-pyridin-3-yl-1H-imidazo[4,5-c]quinolin-2-yl)methyl]pyrrolidin-2-one], the midpoint of the response, the EC50, lay at 7.5 µM.

Regarding `Nc1nc2cc(-c3ccccc3)ccc2c2[nH]c(CN3CCCC3=O)nc12` [Compound 280, 1-[(4-amino-7-phenyl-1H-imidazo[4,5-c]quinolin-2-yl)methyl]pyrrolidin-2-one], the response was half-maximal at 0.22 µM (EC50).

For the compound `Nc1nc2cc(-c3ccccc3Cl)ccc2c2[nH]c(CN3CCCC3=O)nc12` [Compound 281, 1-[[4-amino-7-(2-chlorophenyl)-1H-imidazo[4,5-c]quinolin-2-yl]methyl]pyrrolidin-2-one], the EC50 was determined as 1.4 µM.

In the case of `Cc1ccccc1-c1ccc2c(c1)nc(N)c1nc(CN3CCCC3=O)[nH]c12` [Compound 282, 1-[[4-amino-7-(2-methylphenyl)-1H-imidazo[4,5-c]quinolin-2-yl]methyl]pyrrolidin-2-one], the 50% effective concentration (EC50) was 4.8 µM.

Turning to `COc1ccccc1-c1ccc2c(c1)nc(N)c1nc(CN3CCCC3=O)[nH]c12` [Compound 283, 1-[[4-amino-7-(2-methoxyphenyl)-1H-imidazo[4,5-c]quinolin-2-yl]methyl]pyrrolidin-2-one], the EC50 came out at 6.5 µM.

As to `Nc1nc2cc(-c3ccccc3F)ccc2c2[nH]c(CN3CCCC3=O)nc12` [Compound 284, 1-[[4-amino-7-(2-fluorophenyl)-1H-imidazo[4,5-c]quinolin-2-yl]methyl]pyrrolidin-2-one], a half-maximal response (EC50) required 0.86 µM.

Compound `Nc1nc2cc(-c3cccc(Cl)c3)ccc2c2[nH]c(CN3CCCC3=O)nc12` [Compound 285, 1-[[4-amino-7-(3-chlorophenyl)-1H-imidazo[4,5-c]quinolin-2-yl]methyl]pyrrolidin-2-one] returned an EC50 of 5.7 µM.

`Cc1cccc(-c2ccc3c(c2)nc(N)c2nc(CN4CCCC4=O)[nH]c23)c1` [Compound 286, 1-[[4-amino-7-(3-methylphenyl)-1H-imidazo[4,5-c]quinolin-2-yl]methyl]pyrrolidin-2-one] registered an EC50 of 0.61 µM.

With `COc1cccc(-c2ccc3c(c2)nc(N)c2nc(CN4CCCC4=O)[nH]c23)c1` [Compound 287, 1-[[4-amino-7-(3-methoxyphenyl)-1H-imidazo[4,5-c]quinolin-2-yl]methyl]pyrrolidin-2-one], the EC50 was 1.08 µM.

Compound `N#Cc1cccc(-c2ccc3c(c2)nc(N)c2nc(CN4CCCC4=O)[nH]c23)c1` [Compound 288, 3-[4-amino-2-[(2-oxopyrrolidin-l-yl)methyl]-1H-imidazo[4,5-c]quinolin-7-yl]benzonitrile] showed an EC50 of 10.1 µM.

In the case of `Nc1nc2cc(-c3cccc(F)c3)ccc2c2[nH]c(CN3CCCC3=O)nc12` [Compound 289, 1-[[4-amino-7-(3-fluorophenyl)-1H-imidazo[4,5-c]quinolin-2-yl]methyl]pyrrolidin-2-one], the EC50 was found to be 1.58 µM.

Take `Cc1ccc(-c2ccc3c(c2)nc(N)c2nc(CN4CCCC4=O)[nH]c23)cc1` [Compound 291, 1-[[4-amino-7-(4-methylphenyl)-1H-imidazo[4,5-c]quinolin-2-yl]methyl]pyrrolidin-2-one]: the EC50 was found to be 0.11 µM.

`Nc1nc2cc(Br)ccc2c2[nH]c(CN3CCCC3=O)nc12` [Compound 294, 1-[(4-amino-7-bromo-1H-imidazo[4,5-c]quinolin-2-yl)methyl]pyrrolidin-2-one] gave an EC50 of 4.6 µM.

Take `Nc1nc2cc(-n3cccn3)ccc2c2[nH]c(CN3CCCC3=O)nc12` [Compound 295, 1-[(4-amino-7-pyrazol-1-yl-1H-imidazo[4,5-c]quinolin-2-yl)methyl]pyrrolidin-2-one]: the EC50 was determined as 1.2 µM.

In turn, `Cc1cnn(-c2ccc3c(c2)nc(N)c2nc(CN4CCCC4=O)[nH]c23)c1` [Compound 296, 1-[[4-amino-7-(4-methylpyrazol-1-yl)-1H-imidazo[4,5-c]quinolin-2-yl]methyl]pyrrolidin-2-one] registered an EC50 of 5.1 µM.

For `Nc1nc2cc(C3CCOCC3)ccc2c2[nH]c(CN3CCCC3=O)nc12` [Compound 298, 1-[[4-amino-7-(oxan-4-yl)-1H-imidazo[4,5-c]quinolin-2-yl]methyl]pyrrolidin-2-one], a half-maximal effect (EC50) was put at 21 µM.

In turn, `Cc1ccn(-c2ccc3c(c2)nc(N)c2nc(CN4CCCC4=O)[nH]c23)n1` [Compound 301, 1-[[4-amino-7-(3-methylpyrazol-1-yl)-1H-imidazo[4,5-c]quinolin-2-yl]methyl]pyrrolidin-2-one] registered an EC50 of 2.93 µM.

Regarding `Nc1nc2cc(C3CCCCC3)ccc2c2[nH]c(CN3CCCC3=O)nc12` [Compound 302, 1-[(4-amino-7-cyclohexyl-1H-imidazo[4,5-c]quinolin-2-yl)methyl]pyrrolidin-2-one], it took 0.93 µM to reach a half-maximal effect (EC50).
